Assay results as given in patent US20220409629A1, “BENZODIAZEPINE DERIVATIVES FOR TREATING A RESPIRATORY SYNCYTIAL VIRUS (RSV) INFECTION” (priority 2019, published 2022).

What was measured:
Cell cytotoxicity CC50 = assay type: cell-based; details: human; mean of at least two experiments
[1] = Liver microsomal stability, dog; assay type: in vitro ADME; details: pH 7.4; dog liver microsomes, 0.5 mg/mL protein, 1 μM compound, NADPH; >80% remaining at 45 min denoted >140; read-out: Liver Microsomal Stability: t1/2 (min); dog
Outline: (§1)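 Pooled liver microsomes (0.5 mg/mL protein) in 0.1 M phosphate pH 7.4 with 1 μM compound (0.25% DMSO), started with 1 mM NADPH at 37° C; sampled 0-45 min, minus-NADPH control 45 min. LC-MS/MS depletion slope gave t1/2 and CLint.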

[2] = Rat pharmacokinetics in vivo; details: male Sprague Dawley rats; for AUC(0-t): read-out: PO AUClast
Protocol: The pharmacokinetics of compounds were studied in vivo in rats at doses of 1 mg/kg (IV) and 10 mg/kg (PO).
Male rats (Sprague Dawley) surgically prepared with a jugular vein cannula were treated with experimental compounds via intravenous administration (IV; n=3; 1 mg/kg) or oral administration (PO; n=3; 10 mg/kg). Compounds were formulated as a solution in 40:60 dimethylacetamide:saline (IV administration), a suspension in 1% methyl cellulose (viscosity: 15 cP), 0.1% Tween80 in water (PO administration: Example 3), a solution in 10% DMSO/10% Cremaphor/80% water (PO administration: Examples 4, 11, 21, 23, 25, 26, 32) or a solution in 10% DMSO/20% Cremaphor/70% water (PO administration: Examples 19, 20, 22, 24, 30). […] Serial blood samples were collected via the cannula at 0.02, 0.08, 0.25, 0.5, 1, 2, 4, 6, 8 and 24 h post IV dosing of compound, and at 0.08, 0.25, 0.5, 1, 2, 4, 6, 8 and 24 h post oral dosing of compound, and plasma was prepared by centrifugation and stored immediately at −80° C. Samples were subsequently thawed, prepared for analysis by protein precipitation with acetonitrile, and analysed by tandem LCMS using electrospray ionisation using a matrix-matched calibration curve. PK parameters were calculated from the resulting data.

[3] = Liver hepatocyte stability, dog; assay type: in vitro ADME; details: dog hepatocytes, 3 μM compound, 60 min, >80% remaining at 60 min denoted >186, read-out: Liver Hepatocyte Stability: t1/2 (min)
Protocol: Cryopreserved pooled hepatocytes were purchased from a reputable commercial supplier and stored in liquid nitrogen prior to use. Williams E media supplemented with 2 mM L-glutamine and 25 mM HEPES and test compound (final substrate concentration 3 μM; final DMSO concentration 0.25%) are pre-incubated at 37° C. prior to the addition of a suspension of cryopreserved hepatocytes (final cell density 0.5×10^6 viable cells/mL in Williams E media supplemented with 2 mM L-glutamine and 25 mM HEPES) to initiate the reaction. The final incubation volume is 500 μL. Two control compounds were included with each species, alongside appropriate vehicle control. The reactions are stopped by transferring 50 μL of incubate to 100 μL acetonitrile containing internal standard at the appropriate time points. Samples were removed at 6 time points (0, 5, 15, 30, 45 and 60 min) over the course of a 60 min experiment. The termination plates are centrifuged at 2500 rpm at 4° C. for 30 min to precipitate the protein. Following protein precipitation, the sample supernatants were combined in cassettes of up to 4 compounds and analysed using generic LC-MS/MS conditions. From a plot of ln peak area ratio (compound peak area/internal standard peak area) against time, the gradient of the line is determined. Subsequently, half-life (t1/2) and intrinsic clearance (CLint) were calculated.

[4] = Liver microsomal stability, rat; assay type: in vitro ADME; details: pH 7.4; rat liver microsomes, 0.5 mg/mL protein, 1 μM compound, NADPH; >80% remaining at 45 min denoted >140; read-out: Liver Microsomal Stability: t1/2 (min); rat
Outline: as §1

[5] = Dog pharmacokinetics in vivo; details: plasma, male Beagle dogs; for concentration at 8 h: read-out: C 8 h; for AUC(0-t): read-out: PO AUClast
Protocol: The pharmacokinetics of compounds of the invention were studied in vivo in dogs.
Male Beagle dogs were treated with experimental compounds via intravenous administration (n=2; 0.5 mg/kg) or oral administration (n=2; 3 mg/kg or 4 mg/kg). Compounds were formulated as a solution in 20% dimethylacetamide/80% (2-hydroxypropyl)-β-cyclodextrin (20% w/v) (IV administration) or a solution in 10% dimethylacetamide/90% (2-hydroxypropyl)-β-cyclodextrin (20% w/v) (PO administration). […] Serial blood samples were collected from the jugular vein at 0.03, 0.08, 0.25, 0.5, 1, 2, 4, 6, 8 and 24 h post IV dosing of compound, and at 0.08, 0.25, 0.5, 1, 2, 4, 6, 8 and 24 h post oral dosing of compound, and plasma was prepared by centrifugation and stored immediately at −80° C. Samples were subsequently thawed, prepared for analysis by protein precipitation with acetonitrile, and analysed by tandem LCMS using electrospray ionisation using a matrix-matched calibration curve. PK parameters were calculated from the resulting data.

[6] = rat, in vivo, IV 1 mg/kg, PO 10 mg/kg
[7] = rat, in vivo, IV 1 mg/kg, read-out: IV t½ (converted)
[8] = rat, in vivo, PO 10 mg/kg, read-out: PO t½ (converted)
[9] = rat, in vivo, doses 1 mg/kg (IV) and 10 mg/kg (PO)
[10] = IV 0.5 mg/kg, read-out: IV t1/2 (converted)
[11] = PO 4 mg/kg, read-out: PO t1/2 (converted)
[12] = 8 h, doses 1 mg/kg (IV) and 10 mg/kg (PO)

For CCn1ncc(C(=O)N[C@H]2N=C(c3ccccc3)c3ccccc3NC2=O)c1-c1ccc(NC(C)C)nc1F [Example 3, 1-Ethyl-5-[2-fluoro-6-(propan-2-ylamino)pyridin-3-yl]-N-[(3S)-2-oxo-5-phenyl-1,3-dihydro-1,4-benzodiazepin-3-yl]pyrazole-4-carboxamide], the CC50 at 2 days (Cell cytotoxicity CC50) was greater than 25 µM, the half-life at 1 µM [1] was 45.3 min and the concentration at 8 h ([2]; rat, in vivo, 8 h, doses 1 mg/kg (IV) and 10 mg/kg (PO), read-out: C 8 h) was 108 ng/mL. For the same compound, the Vd ([2]; rat, in vivo, IV 1 mg/kg) was 2.4 L/kg, the clearance ([2]; rat, in vivo, IV 1 mg/kg) was 13.3 mL/min/kg and the bioavailability [2, 6] was 17.1%. For the same compound, the half-life [2, 7] was 132 min, the AUC(0-t) ([2]; rat, in vivo, PO 10 mg/kg) was 2070 ng·h/mL and the half-life [2, 8] was 276 min. The Cmax [2, 9] was 199 ng/mL, the half-life at 3 µM [3] was 67.4 min and the half-life at 1 µM [4] was 88.8 min.

With CCn1ncc(C(=O)N[C@H]2N=C(c3ccccc3)c3ccccc3NC2=O)c1-c1ccc(NC2CC2)nc1F [Example 4, 1-Ethyl-5-[2-fluoro-6-(cyclopropylamino)pyridin-3-yl]-N-[(3S)-2-oxo-5-phenyl-1,3-dihydro-1,4-benzodiazepin-3-yl]pyrazole-4-carboxamide] the CC50 (Cell cytotoxicity CC50) was greater than 25 µM, the half-life [1] was 14.4 min and the concentration at 8 h ([5]; Dose: IV/PO 0.5/4 mg/kg) was 56.1 ng/mL. It also gave a Cmax ([5]; Dose: IV/PO 0.5/4 mg/kg) of 780 ng/mL, a bioavailability ([5]; Dose: IV/PO 0.5/4 mg/kg) of 41.5% and a Vd ([5]; IV 0.5 mg/kg) of 0.79 L/kg. For the same compound, the clearance ([5]; IV 0.5 mg/kg) was 10.3 mL/min/kg, the half-life [5, 10] was 60 min and the AUC(0-t) ([5]; PO 4 mg/kg) was 2680 ng·h/mL. The half-life [5, 11] was 138 min, the “C 8 h” value [2, 12] was 470 ng/mL and the Vd ([2]; rat, in vivo, IV 1 mg/kg) was 2 L/kg. The clearance ([2]; rat, in vivo, IV 1 mg/kg) was 22.7 mL/min/kg, the bioavailability [2, 6] was 124% and the half-life [2, 7] was 78 min. The AUC(0-t) ([2]; rat, in vivo, PO 10 mg/kg) was 9020 ng·h/mL, the half-life [2, 8] was 132 min and the Cmax [2, 9] was 1340 ng/mL. For the same compound, the half-life [3] was 42.1 min and the half-life [4] was 68.5 min.

O=C(N[C@H]1N=C(c2ccccc2)c2cccc(F)c2NC1=O)c1cnn(C2CCOCC2)c1-c1ccc(NC2CC2)nc1F [Example 21, 5-[6-(Cyclopropylamino)-2-fluoropyridin-3-yl]-N-[(3S)-9-fluoro-2-oxo-5-phenyl-1,3-dihydro-1,4-benzodiazepin-3-yl]-1-(oxan-4-yl)pyrazole-4-carboxamide] showed a CC50 (Cell cytotoxicity CC50) greater than 25 µM, a half-life [1] of 124 min and a concentration at 8 h ([5]; Dose: IV/PO 0.5/3 mg/kg) of 146 ng/mL. It also gave a Cmax ([5]; Dose: IV/PO 0.5/3 mg/kg) of 500 ng/mL, a bioavailability ([5]; Dose: IV/PO 0.5/3 mg/kg) of 33.6% and a Vd ([5]; IV 0.5 mg/kg) of 1.3 L/kg. It also gave a clearance ([5]; IV 0.5 mg/kg) of 4.2 mL/min/kg, a half-life [5, 10] of 456 min and an AUC(0-t) ([5]; PO 3 mg/kg) of 3610 ng·h/mL. For the same compound, the half-life ([5]; PO 3 mg/kg, read-out: PO t1/2 (converted)) was 336 min, the “C 8 h” value [2, 12] was 385 ng/mL and the Vd ([2]; rat, in vivo, IV 1 mg/kg) was 2.1 L/kg. It also gave a clearance ([2]; rat, in vivo, IV 1 mg/kg) of 18.6 mL/min/kg, a bioavailability [2, 6] of 98.2% and a half-life [2, 7] of 102 min. It also gave an AUC(0-t) ([2]; rat, in vivo, PO 10 mg/kg) of 8180 ng·h/mL, a half-life [2, 8] of 192 min and a Cmax [2, 9] of 1590 ng/mL. For the same compound, the half-life [3] was greater than 186 min and the half-life [4] was 87.6 min.

CC(C)Nc1ccc(-c2c(C(=O)N[C@H]3N=C(c4ccccc4)c4cccc(F)c4NC3=O)cnn2C2CCOCC2)c(F)n1 [Example 22, N-[(3S)-9-fluoro-2-oxo-5-phenyl-1,3-dihydro-1,4-benzodiazepin-3-yl]-5-[2-fluoro-6-(propan-2-ylamino)pyridin-3-yl]-1-(oxan-4-yl)pyrazole-4-carboxamide] showed a CC50 (Cell cytotoxicity CC50) greater than 25 µM, a half-life [1] of 88.6 min and a concentration at 8 h ([5]; Dose: IV/PO 0.5/4 mg/kg) of 281 ng/mL. The Cmax ([5]; Dose: IV/PO 0.5/4 mg/kg) was 692 ng/mL, the bioavailability ([5]; Dose: IV/PO 0.5/4 mg/kg) was 40.1% and the Vd ([5]; IV 0.5 mg/kg) was 1.4 L/kg. It also gave a clearance ([5]; IV 0.5 mg/kg) of 4.1 mL/min/kg, a half-life [5, 10] of 294 min and an AUC(0-t) ([5]; PO 4 mg/kg) of 6050 ng·h/mL. The half-life [5, 11] was 408 min, the “C 8 h” value [2, 12] was 734 ng/mL and the Vd ([2]; rat, in vivo, IV 1 mg/kg) was 1.9 L/kg. It also gave a clearance ([2]; rat, in vivo, IV 1 mg/kg) of 10 mL/min/kg, a bioavailability [2, 6] of 88.3% and a half-life [2, 7] of 144 min. The AUC(0-t) ([2]; rat, in vivo, PO 10 mg/kg) was 14900 ng·h/mL, the half-life [2, 8] was 156 min and the Cmax [2, 9] was 1440 ng/mL. It also gave a half-life [3] of 90.7 min and a half-life [4] greater than 140 min.

With CCNc1ccc(-c2c(C(=O)N[C@H]3N=C(c4ccccc4)c4cccc(F)c4NC3=O)cnn2C2CCOCC2)c(F)n1 [Example 24, 5-[6-(Ethylamino)-2-fluoropyridin-3-yl]-N-[(3S)-9-fluoro-2-oxo-5-phenyl-1,3-dihydro-1,4-benzodiazepin-3-yl]-1-(oxan-4-yl)pyrazole-4-carboxamide] the CC50 (Cell cytotoxicity CC50) was greater than 25 µM, the half-life [1] was 198 min and the concentration at 8 h ([5]; Dose: IV/PO 0.5/4 mg/kg) was 67 ng/mL. It also gave a Cmax ([5]; Dose: IV/PO 0.5/4 mg/kg) of 450 ng/mL, a bioavailability ([5]; Dose: IV/PO 0.5/4 mg/kg) of 22.7% and a Vd ([5]; IV 0.5 mg/kg) of 0.86 L/kg. The clearance ([5]; IV 0.5 mg/kg) was 6.5 mL/min/kg, the half-life [5, 10] was 90 min and the AUC(0-t) ([5]; PO 4 mg/kg) was 2300 ng·h/mL. For the same compound, the half-life [5, 11] was 144 min, the “C 8 h” value [2, 12] was 182 ng/mL and the Vd ([2]; rat, in vivo, IV 1 mg/kg) was 1.4 L/kg. The clearance ([2]; rat, in vivo, IV 1 mg/kg) was 15 mL/min/kg, the bioavailability [2, 6] was 50% and the half-life [2, 7] was 78 min. For the same compound, the AUC(0-t) ([2]; rat, in vivo, PO 10 mg/kg) was 5540 ng·h/mL, the half-life [2, 8] was 204 min and the Cmax [2, 9] was 791 ng/mL. It also gave a half-life [3] of 139 min and a half-life [4] of 484 min.
